ChEMBL document CHEMBL1201862, “PubChem BioAssay data set” (2004)
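How tested: cells in 96-well plates exposed to compound for 48 hours at five concentrations. GI50 is the concentration that inhibits growth by half.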 Calls of active or inactive are those of the source. Rule as the data show it: active = GI50 up to about 1.1 µM and inactive = higher.

How the values were obtained:
Assay in all cases: NCI tumour cell line growth inhibition, 48 h
[1] = tested on: A549
[2] = tested on: NCI-H522
[3] = tested on: HCC 2998
[4] = tested on: COLO 205
[5] = tested on: ACHN
[6] = tested on: M14
[7] = tested on: RPMI-8226
[8] = tested on: HOP-62
[9] = tested on: SK-OV-3
[10] = tested on: LXFL 529
[11] = tested on: SW-620
[12] = tested on: IGROV-1
[13] = tested on: OVCAR-3
[14] = tested on: CCRF-CEM
[15] = tested on: SK-MEL-28
[16] = tested on: NCI-H460
[17] = tested on: XF498
[18] = tested on: U-251
[19] = tested on: 786-0
[20] = tested on: KM12
[21] = tested on: DMS-114
[22] = tested on: DLD-1
[23] = tested on: UO-31
[24] = tested on: SNB-78
[25] = tested on: EKVX
[26] = tested on: OVCAR-4
[27] = tested on: SNB-19
[28] = tested on: UACC-257
[29] = tested on: HCT-15
[30] = tested on: CAKI-1
[31] = tested on: LOX IMVI
[32] = tested on: SN12C
[33] = tested on: RXF 393
[34] = tested on: OVCAR-5
[35] = tested on: SR
[36] = tested on: M19-MEL
[37] = tested on: HOP-92
[38] = tested on: K562
[39] = tested on: HCT-116
[40] = tested on: TK-10
[41] = tested on: A498
[42] = tested on: SF-539
[43] = tested on: UACC-62
[44] = tested on: Malme-3M
[45] = tested on: HT-29
[46] = tested on: HL-60
[47] = tested on: SF-268
[48] = tested on: SF-295
[49] = tested on: SNB-75
[50] = tested on: OVCAR-8
[51] = tested on: SK-MEL-5
[52] = tested on: NCI-H226
[53] = tested on: NCI-H23
[54] = tested on: DMS-273
[55] = tested on: KM-20L2
[56] = tested on: SK-MEL-2
[57] = tested on: HOP-18
[58] = tested on: MOLT-4

CCOC(=O)C1N(S(=O)(=O)c2ccc(C)cc2)CCC12c1ccccc1NC2c1ccc(OC)c(OC)c1 (centres undefined)
GI50 [1]: > 100 µM (inactive) | GI50 [2]: > 100 µM (inactive) | GI50 [3]: > 100 µM (inactive) | GI50 [4]: > 100 µM (inactive) | GI50 [5]: > 100 µM (inactive) | GI50 [6]: > 100 µM (inactive) | GI50 [7]: 13.9 µM (inactive) | GI50 [8]: > 100 µM (inactive) | GI50 [9]: > 100 µM (inactive) | GI50 [10]: > 100 µM (inactive) | GI50 [11]: 27.4 µM (inactive) | GI50 [12]: 14.6 µM (inactive) | GI50 [13]: > 100 µM (inactive) | GI50 [14]: 80.5 µM (inactive) | GI50 [15]: > 100 µM (inactive) | GI50 [16]: > 100 µM (inactive) | GI50 [17]: 79.8 µM (inactive) | GI50 [18]: > 100 µM (inactive) | GI50 [19]: > 100 µM (inactive) | GI50 [20]: > 100 µM (inactive) | GI50 [21]: > 100 µM (inactive) | GI50 [22]: > 100 µM (inactive) | GI50 [23]: > 100 µM (inactive) | GI50 [24]: > 100 µM (inactive) | GI50 [25]: > 100 µM (inactive) | GI50 [26]: > 100 µM (inactive) | GI50 [27]: > 100 µM (inactive) | GI50 [28]: > 100 µM (inactive) | GI50 [29]: > 100 µM | GI50 [30]: > 100 µM (inactive) | GI50 [31]: > 100 µM (inactive) | GI50 [32]: > 100 µM (inactive) | GI50 [33]: > 100 µM (inactive) | GI50 [34]: > 100 µM (inactive) | GI50 [35]: 22 µM (inactive) | GI50 [36]: > 100 µM (inactive) | GI50 [37]: 10.7 µM (inactive) | GI50 [38]: 34.2 µM (inactive) | GI50 [39]: 60.7 µM (inactive) | GI50 [40]: > 100 µM (inactive) | GI50 [41]: > 100 µM (inactive) | GI50 [42]: > 100 µM (inactive) | GI50 [43]: > 100 µM (inactive) | GI50 [44]: > 100 µM (inactive) | GI50 [45]: > 100 µM (inactive) | GI50 [46]: 27.7 µM (inactive) | GI50 [47]: > 100 µM (inactive) | GI50 [48]: > 100 µM (inactive) | GI50 [49]: > 100 µM (inactive) | GI50 [50]: > 100 µM (inactive) | GI50 [51]: > 100 µM (inactive) | GI50 [52]: > 100 µM (inactive) | GI50 [53]: > 100 µM (inactive) | GI50 [54]: > 100 µM (inactive) | GI50 [55]: > 100 µM (inactive)

Fc1cccc2c1cc1ccc3cccc4ccc2c1c34
GI50 [1]: > 100 µM (inactive) | GI50 [2]: > 100 µM (inactive) | GI50 [3]: > 100 µM (inactive) | GI50 [4]: > 100 µM (inactive) | GI50 [5]: > 100 µM (inactive) | GI50 [6]: > 100 µM (inactive) | GI50 [8]: > 100 µM (inactive) | GI50 [9]: > 100 µM (inactive) | GI50 [10]: > 100 µM (inactive) | GI50 [11]: > 100 µM (inactive) | GI50 [12]: > 100 µM (inactive) | GI50 [13]: > 100 µM (inactive) | GI50 [14]: > 100 µM (inactive) | GI50 [15]: > 100 µM (inactive) | GI50 [17]: > 100 µM (inactive) | GI50 [18]: > 100 µM (inactive) | GI50 [56]: > 100 µM (inactive) | GI50 [19]: > 100 µM (inactive) | GI50 [20]: > 100 µM (inactive) | GI50 [22]: > 100 µM (inactive) | GI50 [23]: > 100 µM (inactive) | GI50 [24]: > 100 µM (inactive) | GI50 [25]: > 100 µM (inactive) | GI50 [26]: > 100 µM (inactive) | GI50 [27]: > 100 µM (inactive) | GI50 [28]: 95.7 µM (inactive) | GI50 [30]: > 100 µM (inactive) | GI50 [31]: > 100 µM (inactive) | GI50 [32]: > 100 µM (inactive) | GI50 [33]: > 100 µM (inactive) | GI50 [34]: > 100 µM (inactive) | GI50 [35]: 60.5 µM (inactive) | GI50 [36]: > 100 µM (inactive) | GI50 [37]: > 100 µM (inactive) | GI50 [57]: > 100 µM (inactive) | GI50 [38]: > 100 µM (inactive) | GI50 [39]: > 100 µM (inactive) | GI50 [40]: 60.1 µM (inactive) | GI50 [41]: > 100 µM (inactive) | GI50 [42]: > 100 µM (inactive) | GI50 [43]: > 100 µM (inactive) | GI50 [44]: > 100 µM (inactive) | GI50 [45]: > 100 µM (inactive) | GI50 [46]: > 100 µM (inactive) | GI50 [47]: > 100 µM (inactive) | GI50 [58]: > 100 µM (inactive) | GI50 [48]: > 100 µM (inactive) | GI50 [49]: > 100 µM (inactive) | GI50 [50]: > 100 µM (inactive) | GI50 [51]: > 100 µM (inactive) | GI50 [52]: > 100 µM (inactive) | GI50 [53]: > 100 µM (inactive) | GI50 [54]: > 100 µM (inactive) | GI50 [55]: > 100 µM (inactive)
